Test results taken from US10736872B1, “Pharmaceutical mixture to treat statin induced vascular calcification” (priority 2019, dated 2020).

Columns and labels:
Assay type in all cases: cell-based
[1] = tested on: human dermal fibroblasts (DF); assay: Expression of osteoblast markers in human dermal fibroblasts (immunoassay); details: 100 mcM ascorbic acid, 5 mM beta-glycerophosphate and 25 mcM forskolin, 4 weeks, FIG. 3B
human aortic SMC = assay: Expression of osteoblast markers in AoSMC (immunoassay); details: 100 mcM ascorbic acid, 5 mM beta-glycerophosphate and 25 mcM forskolin, 4 weeks, FIG. 3A
[2] = tested on: human aortic smooth muscle cells (AoSMC); assay: Alkaline phosphatase activity assay in AoSMC; details: for decrease in ALP activity: 5 mM b-GP, 25 mcM forskolin; for increase of ALP activity / increase of ALP activity compared to control / increase in ALP activity compared to control: 1 mcM statin; for increase of ALP activity compared to control / increase in ALP activity compared to control: four days; for increase of ALP activity compared to control: FIG. 4A; for increase in ALP activity compared to control: pro-calcification condition (5 mM b-GP and 25 mcM forskolin), FIG. 4B
Experimental: Alkaline phosphatase activity assay in AoSMC: AoSMC were plated in 96 well plates and grown to confluent layer. […] Cells were washed with phosphate buffered saline (PBS) and supplemented with 50 mcl/well 25 mcg/ml 4-MUP (fluorescent ALP substrate, Sigma) in alkaline buffer (Sigma)/1% Triton X100 for 1 h at room temperature. Fluorescence was measured at 360/450 nm.
Statistical analysis: Results in figures are means±standard deviation (SD) from three or more repetitions from the most representative of at least two independent experiments. Differences between samples were estimated with a two-tailed Student's t-test using Excel software (Microsoft) and accepted as significant at p levels less than 0.05. The results in FIGS. 4A and 4B and FIGS. 5A and 5B are expressed as percentage of supplemented controls and presented as means±SD from six or more repetitions from the most representative of at least two independent experiments.
The calcification process of AoSMC was evaluated by the activity of cellular alkaline phosphatase (ALP). The study assessed the effects of Mixture 1 (micronutrient combination containing ascorbate) and ascorbate individually under standard (5% FBS/DMEM) and pro-calcification conditions (5% FBS/DMEM supplemented with 5 mM beta-glycerophosphate (b-GP) and 25 mcM forskolin—FIG. 4B).

[3] = tested on: human aortic smooth muscle cells (AoSMC); assay: Calcium accumulation in extracellular matrix of AoSMC
Experimental: Cell viability was monitored with MTT assay. […] Plant-derived micronutrients suppress monocyte adhesion to cultured human aortic endothelial cell layer by modulating its extracellular matrix composition. J Cardiovasc Pharmacol 2008; 52:55-65. After four washes with PBS, ECM layers were solubilized by incubation in 0.6N HCl for 48 hours at 37° C. Calcium content in solubilized samples was measured with TECO Ca assay according to the manufacturer's protocol. […] The calcification process of AoSMC was evaluated by the activity of cellular alkaline phosphatase and calcium accumulation in the cell-produced extracellular matrix (FIG. 1).

[4] = 300 mcM ascorbate, regular growth medium, FIG. 1
[5] = 100 mcM ascorbate in the presence of simvastatin, without forskolin, FIG. 2A
[6] = plain 5% FBS/DMEM, five days, FIG. 5A
[7] = pro-calcification conditions (5 mM b-GP, 25 mcM forskolin), five days, FIG. 5B

SMILES: O=C1O[C@H]([C@@H](O)CO)C(O)=C1O [ascorbic acid, L-ascorbic acid]
- expression of all tested osteogenic markers [1]: significantly reduced
- expression of all tested osteogenic markers (human aortic SMC): significantly reduced
- ALP activity after addition of ascorbate ([2]; 300 mcM ascorbate in the presence of 1 mcM simvastatin, plain 5% FBS/DMEM, five days, FIG. 5A): decreased to control level
- decrease in ALP activity ([2]; 300 mcM ascorbate, mevastatin containing samples, five days, FIG. 5B): 37%
- decrease in ALP activity ([2]; 300 mcM ascorbate, pravastatin containing samples, five days, FIG. 5B): 24%
- decrease of alkaline phosphatase activity [2, 4]: 80%
- decrease in ALP activity ([2]; 300 mcM ascorbate, simvastatin containing samples, five days, FIG. 5B): 36%
- decrease in ALP activity ([2]; 300 mcM ascorbic acid in the absence of statins, five days, FIG. 5B): 29%
- decrease of statin-stimulated ALP activity ([2]; 300 mcM ascorbic acid in the presence of 1 mcM mevastatin, plain 5% FBS/DMEM, five days, FIG. 5A): 29%
- decrease of statin-stimulated ALP activity ([2]; 300 mcM ascorbic acid in the presence of 1 mcM pravastatin, plain 5% FBS/DMEM, five days, FIG. 5A): 30%
- decrease of alkaline phosphatase activity ([2]; 300 mcM ascorbic acid, no statin, plain 5% FBS/DMEM, five days, FIG. 5A): about 43%
- decrease of calcium accumulation ([3]; 100 mcM ascorbate added in the presence of mevastatin, with forskolin, FIG. 2B, to below control values): 19%
- accumulated calcium [3, 5]: 0.2 mcg/well
- decrease of accumulated calcium [3, 5]: 54%
- decrease of extracellular Ca accumulation by AoSMC [3, 4]: 20%

SMILES: CC[C@H](C)C(=O)O[C@H]1CCC=C2C=C[C@H](C)[C@H](CC[C@@H]3C[C@@H](O)CC(=O)O3)[C@H]21 [mevastatin]
- increase of ALP activity [2, 6]: 61%
- increase of ALP activity compared to control ([2]; plain 5% FBS/DMEM): 25%
- increase in ALP activity compared to control [2]: 39%
- increase of ALP activity [2, 7]: 41%
- calcium accumulation ([3]; 1 mM mevastatin, with 25 mcM forskolin, FIG. 2B, control 1.35 mcg/well): 1.8 mcg/well

SMILES: CCC(C)(C)C(=O)O[C@H]1C[C@@H](C)C=C2C=C[C@H](C)[C@H](CC[C@@H]3C[C@@H](O)CC(=O)O3)[C@H]21 [simvastatin]
- increase of ALP activity [2, 6]: 57%
- increase in ALP activity compared to control [2]: 22%
- increase of ALP activity [2, 7]: 30%
- increase of calcium accumulation in AoSMC layers ([3]; simvastatin, without forskolin, FIG. 2A): 23%

SMILES: CC[C@H](C)C(=O)O[C@H]1C[C@H](O)C=C2C=C[C@H](C)[C@H](CC[C@@H](O)C[C@@H](O)CC(=O)O)[C@H]21 [pravastatin]
- increase of ALP activity [2, 6]: 60%
- increase of ALP activity compared to control ([2]; plain 5% FBS/DMEM): 39%
- increase in ALP activity compared to control [2]: 25%
- increase of ALP activity [2, 7]: 25%
